# Structures can show the parent of a compound that is named as a salt.
# Legend:
# [1] = test system: Megoura viciae; assay: Vetch aphid (Megoura viciae) mortality on sprayed bean leaf disks in microtiterplates; type: in vivo; settings: foliar, 144 h, bean leaf disks sprayed with 2.5 μl, 6 days, read-out: mortality in comparison with untreated controls
# Procedure: The active compounds were formulated in 1:3 DMSO:water. Bean leaf disks were placed into microtiterplates filled with 0.8% agar-agar and 2.5 ppm OPUS™. The leaf disks were sprayed with 2.5 μl of the test solution and 5 to 8 adult aphids were placed into the microtiterplates which were then closed and kept at 22-24° C. and 35-45% under fluorescent light for 6 days. Mortality was assessed on the basis of vital, reproduced aphids. Tests were replicated 2 times.
SMILES,melting point [°C],mortality at 2500 ppm [1] [%]
"Clc1cccc(CC(N=C2NCCN2)c2ccccc2)c1 (centres unmarked) (as salt: salt) [Example 1.1, [2-(3-Chloro-phenyl)-1-phenyl-ethyl]-(4,5-dihydro-1H-imidazol-2-yl)-amine hydroiodide]",162 to 164,
"CC(=O)N1CCN=C1NC(Cc1ccccc1)c1ccccc1 (centres unmarked) [Example 2.1, 1-[2-(1,2-Diphenylethylamino)-4,5-dihydroimidazol-1-yl]-ethanone]",,> 80
